Measurements published in PubChem BioAssay (NCI).
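How tested: cells in 96-well plates exposed to compound for 48 hours at five concentrations. GI50 is the concentration that inhibits growth by half. TGI is the concentration that stops growth completely.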

Legend:
Experiment in all cases: NCI tumour cell line growth inhibition, 48 h
RXF 393 renal = tested on: RXF 393 renal
SF-268 CNS = tested on: SF-268 CNS
CAKI-1 renal = tested on: CAKI-1 renal
UACC-62 melanoma = tested on: UACC-62 melanoma
NCI-H460 lung = tested on: NCI-H460 lung
SF-539 CNS = tested on: SF-539 CNS
MCF7 breast = tested on: MCF7 breast
MDA-MB-435 = tested on: MDA-MB-435
HS 578T breast = tested on: HS 578T breast
NCI/ADR-RES ovarian = tested on: NCI/ADR-RES ovarian

Compound	TGI (RXF 393 renal)	TGI (SF-268 CNS)	TGI (CAKI-1 renal)	TGI (UACC-62 melanoma)	TGI (NCI-H460 lung)	TGI (SF-539 CNS)	GI50 (SF-268 CNS)	GI50 (MCF7 breast)	TGI (MCF7 breast)	GI50 (CAKI-1 renal)	GI50 (MDA-MB-435)	TGI (MDA-MB-435)	GI50 (UACC-62 melanoma)	GI50 (HS 578T breast)	TGI (HS 578T breast)	GI50 (NCI-H460 lung)	GI50 (SF-539 CNS)	GI50 (RXF 393 renal)	GI50 (NCI/ADR-RES ovarian)	TGI (NCI/ADR-RES ovarian)
COCC(=O)CP(=O)(OC)OC	> 100 µM	> 100 µM	> 100 µM	> 100 µM	> 100 µM	> 100 µM														
Cc1c(C(=O)c2ccccc2C(=O)O)c2ccccc2n1C	> 100 µM		> 100 µM	> 100 µM	> 100 µM	> 100 µM														
CC(=O)O[C@H]1CC[C@@]2(C)C(=CC[C@H]3[C@@H]4C/C(=C\c5cccc(OCCN6CCOCC6)c5)[C@H](OC(C)=O)[C@@]4(C)CC[C@@H]32)C1		58.8 µM	59 µM	19.1 µM	20.7 µM	13.9 µM	12.6 µM	10.4 µM	84.5 µM	12.2 µM	11.1 µM	23.1 µM	6.1 µM	3.07 µM	10.9 µM	6.39 µM	3.64 µM			
O=c1cc2ccccc2nn1Cc1ccccc1Cl		> 100 µM	> 100 µM	> 100 µM	> 100 µM	> 100 µM														
Cn1c(=O)nc2n(-c3cccc(F)c3)c3ccccc3nc-2c1=O	> 100 µM	> 100 µM	96.9 µM	13 µM	67.1 µM	66 µM														
CCNC(=O)C#CC(=O)NCC	> 100 µM	> 100 µM	> 100 µM	> 100 µM	> 100 µM	> 100 µM	> 10 µM			> 10 µM			> 10 µM			> 10 µM	> 10 µM	> 100 µM		
CN1c2ccccc2N(C)C2C1N(C)c1ccccc1N2C (stereo not drawn)	32.6 µM	46.6 µM	> 100 µM	24.9 µM	> 100 µM	45.8 µM														
CN1NC2(CCCCC2)ON=C1c1ccccc1	> 100 µM	> 100 µM	> 100 µM	> 100 µM	> 100 µM	> 100 µM														
NC1CCN(c2nc(Nc3cccc(C(F)(F)F)c3)c3c(=O)[nH]ccc3n2)CC1	2.67 µM		1.88 µM	3.51 µM	2.8 µM	3.26 µM		1.35 µM	3.02 µM	0.444 µM	1.09 µM	2.42 µM	1.83 µM	1.64 µM	4.26 µM	1.26 µM	1.77 µM	1.31 µM	1.87 µM	3.63 µM
O=S(=O)(NCC1CCC(CNc2ccc(Cl)cc2)CC1)c1ccc(-c2ccccc2)cc1 (stereo not drawn)		> 50 µM	> 50 µM	> 50 µM	> 50 µM	> 50 µM	> 50 µM	> 50 µM	> 50 µM	25.6 µM	> 50 µM	> 50 µM	> 50 µM	12.7 µM	> 50 µM	42.5 µM	> 50 µM		> 50 µM	> 50 µM
